In US20130252930A1 (BIOMARIN PHARMACEUTICAL INC., priority 2010, published 2013):
Like-named read-outs stand apart in the source and are kept apart here.

Tests used:
[1] = target: T1, CYP17 (human testicular microsome) (Homo sapiens, UniProt P05093); assay: CYP17 enzymatic assay (IC50) (Biological Example 4); type: biochemical; conditions: human testicular microsome
T1 construct: using microsomal fraction from human testis (Celsis Cat #S00110) as the enzyme source; tissue Celsis S00110; host or cells: human testis microsomal fraction
T1 sequence (P05093 1-508): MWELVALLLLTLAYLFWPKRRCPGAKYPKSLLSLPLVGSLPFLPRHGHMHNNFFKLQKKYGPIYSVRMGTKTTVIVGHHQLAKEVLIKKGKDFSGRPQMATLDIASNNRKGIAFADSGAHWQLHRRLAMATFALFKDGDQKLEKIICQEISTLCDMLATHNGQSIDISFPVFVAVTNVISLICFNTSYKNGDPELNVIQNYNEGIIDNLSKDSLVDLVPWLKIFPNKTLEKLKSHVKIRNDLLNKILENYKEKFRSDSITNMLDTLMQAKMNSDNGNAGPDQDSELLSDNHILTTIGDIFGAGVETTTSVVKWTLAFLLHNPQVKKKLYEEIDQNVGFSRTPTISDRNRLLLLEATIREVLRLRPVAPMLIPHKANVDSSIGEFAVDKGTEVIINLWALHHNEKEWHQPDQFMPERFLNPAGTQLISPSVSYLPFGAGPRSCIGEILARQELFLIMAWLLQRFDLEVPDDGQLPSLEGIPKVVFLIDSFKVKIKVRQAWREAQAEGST
Method: The assays were performed in 96-well plates. Typical assays were carried out in total 100 μL volume that included test compounds at designated concentrations, 1× reaction buffer, 0.5 mM NADPH, 1 μM 17α-hydroxypregnenolone, and 2.5 μL of diluted human testicular microsome (Celsis. Cat #S00110). Reaction without test compound served as positive control. Reactions were allowed to incubate at 37° C. for 90 minutes with gentle shaking. The reaction was stopped by directly applying the enzymatic reaction mixture to ELISA plate for evaluation of DHEA concentration according to manufacturer's protocol (IBL America). A standard curve (OD450 vs. DHEA concentration) was generated using purified DHEA.

CYP17 (H295R cells) = target: T2, CYP17 (H295R cells) (Homo sapiens, UniProt P05093); assay: CYP17 cellular assay (IC50), testosterone in H295R cells (Biological Example 7); type: cell-based; conditions: H295R cells
T2 construct: endogenous in cells; host or cells: H295R cells
T2 sequence (P05093 1-508): T1 sequence (P05093 1-508)
Method: The assays were performed in 96-well plates. Typically H295R cells were seeded at 4.5×10^4 cells/well in 100 μL Growth Medium containing DMEM/F-12 (Gibco/Invitrogen; 11330-032), 2.5% Nu-Serum (BD Bioscience; 355100) and ITS (BD Bioscience; 354352), and cultured at 37° C., 5% CO2 for 24 hr. The next day, media were carefully removed and cells were washed twice with 200 μL 1×HBSS++. Test compounds were then added to the cells at 100, 10, 1, 0.1 nM final concentrations in 125 μL volume per well in serum-free media containing DMEM/F-12 and ITS+ Premix (BD Bioscience; 354352) with 0.1% methanol. Serum-free media with 0.1% methanol without test compound was used as control. Cells were incubated with compounds at 37° C. for additional 24 hours, and the cultured media from each compound treated well was harvested for measurement of testosterone concentration by ELISA according to manufacturer's instruction (Assay Design). Testosterone concentration of each sample was plotted vs. the concentration of the test compounds.

[2] = target: T1, CYP17 (human testicular microsome); assay: CYP17 enzymatic assay (% inhibition at 1 nM) (Biological Example 12); type: biochemical; conditions: compound at 1 nM
[3] = Human liver microsome stability assay (Biological Example 8b); conditions: liver microsomes, pH 7.4
Method: The reaction was started with addition of excess NADPH (5 mg/mL, 15 μL in 0.1 M potassium phosphate buffer, 1.0 mM EDTA, pH 7.4), the total volume is 45 μL (compound final concentration was 1 μM). […] 50 μL of the supernatant was transferred from each well into a 96-well sample plate containing 50 μL of ultra-pure water (Millipore) for LC-MS/MS analysis.

[4] = target: T1, CYP17 (human testicular microsome); assay: CYP17 enzymatic assay (% inhibition at 10 nM), version 1 (Biological Example 5); type: biochemical; conditions: 10 nM compound, DHEA by ELISA, read-out: Biological Example No. 5: CYP17 percent inhibition at 10 nM (version 1)
Method: The assays were performed in 96-well plates. Typical assays were carried out in total 100 μL volume that included test compounds at 10 nM concentration, 1× reaction buffer, 0.5 mM NADPH, 1 μM 17α-hydroxypregnenolone, and 2.5 μL of diluted human testicular microsome (Celsis. Cat #S00110). Reaction without test compound served as positive control. Reactions were allowed to incubate at 37° C. for 90 minutes with gentle shaking. The reaction was stopped by directly applying the enzymatic reaction mixture to ELISA plate for evaluation of DHEA concentration according to manufacturer's protocol (IBL America). A standard curve (OD450 vs. DHEA concentration) was generated using purified DHEA. […] Percent inhibition (inhibition %) of the compound was calculated using normalized DHEA concentration based on following formula: 100-([DHEA] of compound/[DHEA] of positive control *100).

[5] = read-out: Biological Example No. 4: CYP17 enzymatic assay IC50
[6] = testosterone, read-out: Biological Example No. 7: CYP17 cellular assay IC50
[7] = read-out: Biological Example No. 12: CYP17 enzymatic assay % inhibition at 1 nM
[8] = testosterone, read-out: CYP17 cellular assay IC50 (Biological Example No. 7)
[9] = read-out: CYP17 enzymatic assay % inhibition at 1 nM (Biological Example No. 12)

| SMILES | IC50 [1, 5] | IC50 (CYP17 (H295R cells); [6]) | inhibition at 0.001 µM [2, 7] | half-life at 1 μM [3] | IC50 ([1]; DHEA by ELISA, read-out: Biological Example No. 4: CYP17 enzymatic assay IC50) | inhibition at 0.01 µM [4] | IC50 (CYP17 (H295R cells); testosterone by ELISA, 24 hours, read-out: Biological Example No. 7: CYP17 cellular assay IC50) | IC50 (CYP17 (H295R cells); [8]) | inhibition at 0.001 µM [2, 9] | IC50 ([1]; read-out: CYP17 enzymatic assay IC50 (Biological Example No. 4)) |
| --- | --- | --- | --- | --- | --- | --- | --- | --- | --- | --- |
| C[C@]12CC[C@H]3[C@@H](CC4CC45C[C@@H](O)CC[C@]35C)[C@@H]1CC=C2c1cccnc1 (single isomer, unassigned) [Compound 317] | < 11 nM | < 15 nM | > 50% | 1 to 50 min |  |  |  |  |  |  |
| COc1cncc(C2=CC=C3[C@@H]4CC=C5C[C@@H](O)CC[C@]5(C)[C@H]4CC[C@]23C)c1 [Compound 81, (3S,10R,13S)-17-(5-methoxypyridin-3-yl)-10,13-dimethyl-2,3,4,7,8,9,10,11,12,13-decahydro-1H-cyclopenta[a]phenanthren-3-ol] |  |  |  | > 50 min | < 11 nM | > 80% | < 15 nM |  |  |  |
| Cc1ccncc1C1=CC=C2[C@@H]3CC=C4C[C@@H](O)CC[C@]4(C)[C@H]3CC[C@]12C [Compound 190, (3S,10R,13S)-10,13-dimethyl-17-(4-methylpyridin-3-yl)-2,3,4,7,8,9,10,11,12,13-decahydro-1H-cyclopenta[a]phenanthren-3-ol] |  |  |  | 1 to 50 min |  |  |  | 15 to 100 nM | > 50% |  |
| CC(C)C(=O)N[C@@H]1CC[C@@]2(C)C(CCC3C2CC[C@]2(C)C(c4cccnc4)=CCC32)C1 (stereo partly drawn) [Compound 216, N-((3R,10S,13S)-10,13-dimethyl-17-(pyridin-3-yl)-2,3,4,5,6,7,8,9,10,11,12,13,14,15-tetradecahydro-1H-cyclopenta[a]phenanthren-3-yl)isobutyramide] |  |  |  | 1 to 50 min |  |  |  | < 15 nM | > 50% |  |
| CC(=O)N[C@@H]1CC[C@@]2(C)C(=CCC3C2CC[C@]2(C)C(c4cccnc4)=CCC32)C1 (stereo partly drawn) [Compound 223, N-((3R,10R,13S)-10,13-dimethyl-17-(pyridin-3-yl)-2,3,4,7,8,9,10,11,12,13,14,15-dodecahydro-1H-cyclopenta[a]phenanthren-3-yl)acetamide] |  |  |  | 1 to 50 min |  |  |  | < 15 nM | > 50% | < 11 nM |
| CC(=O)N[C@@H]1CC[C@@]2(C)C(=CCC3C4=CC=C(c5cccnc5)[C@@]4(C)CCC32)C1 (stereo partly drawn) [Compound 243, N-((3R,10R,13S)-10,13-dimethyl-17-(pyridin-3-yl)-2,3,4,7,8,9,10,11,12,13-decahydro-1H-cyclopenta[a]phenanthren-3-yl)acetamide] |  |  |  | 1 to 50 min |  |  |  | < 15 nM | > 50% |  |
| C[C@]1(O)CC[C@@]2(C)C(CCC3C2CC[C@]2(C)C(c4cncc(F)c4)=CCC32)C1 (stereo partly drawn) [Compound 264, (3S,10S,13S)-17-(5-fluoropyridin-3-yl)-3,10,13-trimethyl-2,3,4,5,6,7,8,9,10,11,12,13,14,15-tetradecahydro-1H-cyclopenta[a]phenanthren-3-ol] | < 11 nM | < 15 nM |  | 1 to 50 min |  |  |  |  |  |  |
| C[C@]12CC[C@H]3[C@@H](CC=C4C[C@@H](O)CC[C@@]43C)C1=CC=C2c1cncc(F)c1 [Compound 271, (3S,10R,13S)-17-(5-fluoropyridin-3-yl)-10,13-dimethyl-2,3,4,7,8,9,10,11,12,13-decahydro-1H-cyclopenta[a]phenanthren-3-ol] | < 11 nM | < 15 nM | > 50% | 1 to 50 min |  |  |  |  |  |  |
| C[C@]12CC[C@H](O)CC1=CCC1C2CC[C@]2(C)C(c3cncc(C(F)F)c3)=CCC12 (stereo partly drawn) [Compound 279, (3S,10R,13S)-17-(5-(difluoromethyl)pyridin-3-yl)-10,13-dimethyl-2,3,4,7,8,9,10,11,12,13,14,15-dodecahydro-1H-cyclopenta[a]phenanthren-3-ol] | < 11 nM | < 15 nM | > 50% | > 50 min |  |  |  |  |  |  |
| C[C@]12CCC3C(CC(F)C4(O)C[C@@H](O)CC[C@]34C)C1CC=C2c1cncc(F)c1 (stereo partly drawn) [Compound 321, (3S,10R,13S)-6-fluoro-17-(5-fluoropyridin-3-yl)-10,13-dimethyl-2,3,4,5,6,7,8,9,10,11,12,13,14,15-tetradecahydro-1H-cyclopenta[a]phenanthrene-3,5-diol] | < 11 nM | < 15 nM | > 50% | 1 to 50 min |  |  |  |  |  |  |
| C[C@]12CCC(=O)C=C1C1CC1[C@@H]1[C@@H]2CC[C@]2(C)C(c3cncc(F)c3)=CC[C@@H]12 (stereo partly drawn) [Compound 330, (4aR,6aS)-7-(5-fluoropyridin-3-yl)-4a,6a-dimethyl-4,4a,4b,5,6,6a,9,9a,9b,9c,10,10a-dodecahydrocyclopenta[a]cyclopropa[l]phenanthren-2(3H)-one] | < 11 nM | < 15 nM | > 50% | 1 to 50 min |  |  |  |  |  |  |
| C[C@]12CCNC(=O)C=C1CCC1C2CC[C@]2(C)C(c3cncc(C(F)F)c3)=CCC12 (stereo partly drawn) [Compound 386, (5aR,7aS)-8-(5-(difluoromethyl)pyridin-3-yl)-5a,7a-dimethyl-3,4,5,5a,5b,6,7,7a,10,10a,11,12-dodecahydrocyclopenta[5,6]naphtho[1,2-d]azepin-2(10bH)-one] | < 11 nM | < 15 nM | > 50% | 1 to 50 min |  |  |  |  |  |  |
| C[C@]12CC(O)CC1CCC1C2CC[C@]2(C)C(c3cncc(F)c3)=CCC12 (stereo partly drawn) [Compound 398, (3aS,5aS)-6-(5-fluoropyridin-3-yl)-3a,5a-dimethyl-1,2,3,3a,3b,4,5,5a,8,8a,8b,9,10,10a-tetradecahydrodicyclopenta[a,f]naphthalen-2-ol] | < 11 nM | < 15 nM | 10 to 50% | > 50 min |  |  |  |  |  |  |
| C[C@]12CC(O)CC1CCC1C2CC[C@]2(C)C(c3cccnc3)=CCC12 (stereo partly drawn) [Compound 399, (3aS,5aS)-3a,5a-dimethyl-6-(pyridin-3-yl)-1,2,3,3a,3b,4,5,5a,8,8a,8b,9,10,10a-tetradecahydrodicyclopenta[a,f]naphthalen-2-ol] | < 11 nM | < 15 nM | > 50% | 1 to 50 min |  |  |  |  |  |  |
| C[C@]12CCC(F)CC1=CC[C@@H]1[C@@H]2CC[C@]2(C)C(c3cncc(F)c3)=CC[C@@H]12 (stereo partly drawn) [Compound 401, 3-fluoro-5-((10R,13S)-3-fluoro-10,13-dimethyl-2,3,4,7,8,9,10,11,12,13,14,15-dodecahydro-1H-cyclopenta[a]phenanthren-17-yl)pyridine] | < 11 nM | < 15 nM |  | > 50 min |  |  |  |  |  |  |
| C[C@]12CCC(=O)C=C1C=CC1C2CC[C@]2(C)C(c3cncc(F)c3)=CCC12 (stereo partly drawn) [Compound 409, (10R,13S)-17-(5-fluoropyridin-3-yl)-10,13-dimethyl-8,9,10,11,12,13,14,15-octahydro-1H-cyclopenta[a]phenanthren-3(2H)-one] | < 11 nM | < 15 nM | > 50% | 1 to 50 min |  |  |  |  |  |  |
